Test results published in US20050004225A1, “Oxidoreductase inhibitors and methods of screening and using thereof” (priority 2003, published 2005).
Read-outs that look alike come from different tables or passages of the source.

Columns and labels:
[1] = target: T1, human aldose reductase (Homo sapiens, UniProt P15121); experiment: Inhibition of recombinant human aldose reductase, DL-glyceraldehyde reduction, NADPH at 340 nm; type: biochemical
T1 construct: His-tag (cleaved yes); made in house; host or cells: E. coli BL21
Protocol: DL Glyceraldehyde, NADPH, and Bezafibrate (2-[4-[2-(4-chlorobenzamiso)ethyl]phenoxy]-2-methyl-propionic acid) were purchased from Sigma-Aldrich. All other chemicals used were of the highest purity available.
Human aldose reductase was recombinantly expressed in E. coli BL21, purified, and used for testing the efficacy of Bezafibrate in regulating aldehyde reduction reaction. […] Over night grown culture was inoculated (25 ml/l) into four 3 l flasks each containing 11 LB supplemented with ampicillin (50 μg/ml) at 37° C. with shaking (250 rpm) for 3 to 4 h until an attenuance (A600) of ˜0.7. Isopropyl β-D-thiogalactoside (IPTG, 1 mM) was added to the culture and was further incubated for 3 h to induce the expression of human aldose reductase gene. […] Cell pellets were resuspended in 80 ml of Talon extraction/wash buffer, (pH 7.9, Clonetech), and lysed by sonication with ten pulses (30 s each) and centrifuged at 12 000 g. […] The slurry was then transferred into a column allowing the matrix to pack and the supernatant to pass through at a flow rate of […]. The column was washed with 50 ml of Talon extraction/wash buffer, and the enzyme was eluted with 50 ml of Talon elution buffer. The eluted protein was dialyzed overnight using Spectra/Por 5-8 kDa MWCO at 4° C. in 50 mM sodium phosphate buffer (pH 7.0) containing 1 mM 2-mercaptoethanol. His-tag from the dialyzed protein was removed using thrombin cleavage kit (Novagen) by adding 1 μl of thrombin to 4 mg of protein and incubating overnight at room temperature. The purity of the protein at each stage of purification was assessed by SDS PAGE, and staining the gels with Coomassie Blue.
Activity with various concentrations of DL glyceraldehyde in the absence and, in the presence of various concentrations of Bezafibrate was determined by monitoring the change in NADPH concentration at room temperature 28±2° C. in a Beckman DU600 model spectrophotometer by measuring the absorbance at 340 nm, in 0.01 M sodium phosphate buffer (pH 6.2). Kinetic parameters were obtained from initial-rate activity measurements, with substrate concentrations of 0.05 mM to 10 mM. Each individual rate measurement was done in duplicate. At least three independent determinations were performed for each kinetic constant. Values were calculated using Sigmaplot Ver 8.0 (SPSS Inc.) using a non-linear Marquardt's regression algorithm that computes the coefficients (parameters) of the independent variable(s) that give the “best fit” between the equation and the data. Inhibition-constant (Ki) and, the IC50 values for bezofibrate was calculated from the secondary plot of slope values from the double-reciprocal plot versus inhibitor concentration and from the plot of rate of reaction versus inhibitor concentration respectively.
The initial rates in the presence of Bezafibrate were analyzed by using equation 1: v=Vmax/((1+Km/S)*(1+I/Ki)/(1+I*beta/Ki)) (1) where, v=rate of reaction, Vmax=maximum initial velocity for the uninhibited reaction, Km=Michaelis constant in the absence of inhibitor, Ki=inhibition constant and beta=the rate constant when enzyme substrate complex breaks down to Enzyme and Product.

[2] = system: isolated rabbit cardiac myocytes; experiment: Cellular metabolism of adenine propenal in isolated cardiac myocytes (HPLC, ESI+/MS); type: cell-based; conditions: 10 μM adenine propenal
Protocol: (§1) The cellular metabolism of base propenals was examined in isolated rabbit cardiac myocytes and COS-7 cells. The myocytes from rabbit ventricle were isolated as described in (46) and the COS-7 cells were obtained from ATCC. For metabolic studies, the cells were incubated with 10 μM of adenine propenal in Hepes-Ringer's buffer, pH 7.4. After 30 min of incubation, the medium was removed, and the adenine propenal and metabolites in the medium were separated by HPLC. […] To establish the structure of the glutathione conjugate peak I of the metabolites was injected into ESI^+/MS.
(§2) To probe the role of AR further, whether upregulation of AR would enhance the reductive metabolism of adenine propenal was examined. To enhance the expression of AR, the COS-7 cells were transfected with AR cDNA using lipofectamine.

[3] = system: COS-7 cells; experiment: Cellular metabolism of adenine propenal in COS-7 cells (HPLC, ESI+/MS); type: cell-based; conditions: 10 μM adenine propenal; for reduction of the glutathione conjugate of adenine propenal in the presence of AR inhibitor: COS-7 cells
Protocol: as §1, §2
To examine changes in metabolism, the cells transfected with AR cDNA and the empty vector were incubated with 10 μM adenine propenal as described before. After 30 min of incubation, the medium was collected and separated by HPLC.

[4] = target: T2, rat lens aldose reductase (Rattus norvegicus, UniProt P07943); conditions: cited from earlier work
T2 construct: host or cells: rat lens (as named)

[5] = system: hepatoma cells; conditions: in the presence of 3-deoxyglucosone and glyceraldehydes; cited from earlier work
[6] = system: COS-7 cells; experiment: Toxicity of adenine propenal to COS-7 cells, MTT assay; type: cell-based; conditions: 100 μM adenine propenal, pre-incubated with 100 μM sorbinil
[7] = system: B16 melanoma-induced cachexia; conditions: cited from earlier work; for B16 melanoma-induced cachexia: mice
[8] = system: murine adenocarcinoma colon26-induced cachexia; conditions: cited from earlier work
[9] = system: human monocytes; conditions: human monocytes stimulated by LPS in vitro; cited from earlier work
[10] = system: interleukin-1 (IL-1); conditions: mice; cited from earlier work
[11] = system: HeLa cervical carcinoma cells; conditions: cited from earlier work
[12] = target: rat aldose reductase (Rattus norvegicus, UniProt P07943); conditions: cited from earlier work
[13] = reduction of glyceraldehyde, read-out: Ki value
[14] = saturating substrate (10 mM DL-glyceraldehyde), read-out: IC50 value
[15] = Table I, recombinant human AR, reduction of DL-glyceraldehyde, read-out: K1

CC(C)(Oc1ccc(Cl)cc1)C(=O)O [2-4-Chlorophenoxy clofibric acid]
inhibitory effect on AR activity (in words) [1]: inhibitory effect | Ki [1, 13]: 1.04 ± 0.047 µM | IC50 [1, 14]: 1.2 ± 0.1 µM

Cc1ccc(C)c(OCCCC(C)(C)C(=O)O)c1 [Gemfibrozil]
inhibitory effect on AR activity (in words) [1]: inhibitory effect | IC50 ([1]; Table I, recombinant human AR, reduction of DL-glyceraldehyde, read-out: IC50): 6.5 ± 0.02 µM | Ki [1, 15]: 3.5 ± 0.79 µM | Ki [1, 13]: 2.74 ± 0.072 µM | IC50 [1, 14]: 3 ± 0.2 µM

COc1ccc2c(C(=S)N(C)CC(=O)O)cccc2c1C(F)(F)F [tolrestat]
reduction of the glutathione conjugate of adenine propenal in the presence of AR inhibitor [2]: significantly prevented | reduction of the glutathione conjugate of adenine propenal in the presence of AR inhibitor [3]: significantly prevented

O=C(O)/C=C/c1ccccc1 [trans-cinnamic acid]
inhibition against rat AR [4]: weak inhibition

CC(/C=C1\SC(=S)N(CC(=O)O)C1=O)=C\c1ccccc1 [ONO-2235]
viability of hepatoma cells [5]: decreased

O=C1NC(=O)[C@@]2(CCOc3ccc(F)cc32)N1 [Sorbinil]
inhibitory effect on AR activity (in words) [1]: inhibitory effects | reduction of the glutathione conjugate of adenine propenal in the presence of AR inhibitor [2]: significantly prevented | adenine propenol peak (22 min) in AR cDNA-transfected cells ([3]; AR-transfected COS-7 cells, 30 min, in the presence of sorbinil): completely abolished | reduction of the glutathione conjugate of adenine propenal in the presence of AR inhibitor [3]: significantly prevented | half life of cell viability after pre-incubation with AR inhibitor [6]: 6.1 ± 0.5 h

O=C(O)Cc1nn(Cc2ccc(Br)cc2F)c(=O)c2ccccc12 [ponalrestat]
B16 melanoma-induced cachexia [7]: inhibited | survival ([8]; colon26 bearing mice): significantly prolonged | weight of body mass, epididymal fat, gastrocnemius muscle and carcass ([8]; colon26 bearing mice): attenuated the reduction | tumor growth ([8]; mice bearing colon26 subcutaneously): slightly stimulated | production of interleukin-1 (IL-1) [9]: inhibited | LPS-induced increase of IL-1 in the blood [10]: suppressed

N#CC(=Cc1ccc(O)cc1)C(=O)O [α-cyano-4-hydroxycinnamic acid]
IC50 [1]: 0.08 ± 0.005 µM | Ki [1]: 0.085 µM | inhibition pattern with respect to reduction of glyceraldehyde, forward direction ([1]; recombinant hAR, Lineweaver-Burk plot): partial noncompetitive inhibition pattern

OC/C=C/c1ccccc1 [ainnnamyl alcohol]
inhibition against rat AR [4]: weak inhibition

COc1cccc2c1C(=O)c1c(O)c3c(c(O)c1C2=O)C[C@@](O)(C(C)=O)C[C@@H]3O[C@H]1C[C@H](N)[C@H](O)[C@H](C)O1 [Daunorubicin]
inhibitory effect on AR activity (in words) [1]: inhibitory effects | Ki [1, 15]: 21.4 ± 7.67 µM | IC50 [1, 14]: 5 µM

C=CCc1ccc(O)c(OC)c1 [eugenol]
inhibition against rat AR [4]: weak inhibition

N#CC(=C(/N)Sc1ccccc1N)/C(C#N)=C(\N)Sc1ccccc1N [U0126]
EBPC-mediated enhancement of cell death ([11]; inhibition of ERK activation by MEK inhibitor): reversed

CCOC(=O)C1=C(O)C(=O)N(Cc2ccccc2)C1 [EBPC, ethyl 1-benzyl-3-hydroxy-2(5H)-oxopyrrole-4-carboxylate]
inhibition of rat aldose reductase [12]: inhibits | cell death or proliferation, EBPC alone ([11]; 30 or 50 μM EBPC alone): no effect | percentage of dead cells ([11]; 24 h, doxorubicin or 30 μM cisplatin with 30 or 50 μM EBPC, vs untreated control): significant increase | extracellular signal-regulated kinase (ERK) activity ([11]; EBPC with chemotherapeutic drugs vs chemotherapeutic drugs): increased | cytotoxic effects of doxorubicin and cisplatin ([11]; HeLa cells, combination with EBPC): enhances

COc1cccc2c1C(=O)c1c(O)c3c(c(O)c1C2=O)C[C@@](O)(C(=O)CO)C[C@@H]3O[C@H]1C[C@H](N)[C@H](O)[C@H](C)O1 [Doxorubicin]
IC50 [1]: 0.2 µM | Ki [1]: 0.24 ± 0.02 µM

CC(=O)[C@]1(O)Cc2c(O)c3c(c(O)c2[C@@H](O[C@H]2C[C@H](N)[C@H](O)[C@H](C)O2)C1)C(=O)c1ccccc1C3=O [Idamycin]
inhibitory effect on AR activity (in words) [1]: inhibitory effects | Ki [1, 15]: 20.5 ± 1.5 µM | IC50 [1, 14]: 5.6 µM

O=[N+]([O-])NC1=NCCN1Cc1ccc(Cl)nc1 [Imidcloprid, N-(6-chloropyridin-3-ylmethyl)-2-nitroiminoimidazolidine]
IC50 ([1]; IC50 value, saturating substrate (10 mM DL-glyceraldehyde)): 1.5 µM | Ki ([1]; Ki value, reduction of glyceraldehyde): 12.6 µM

O=CC=Cc1ccccc1 [cinnamaldehyde]
inhibition against rat AR [4]: high potency

CC(C)(Oc1ccc(CCNC(=O)c2ccc(Cl)cc2)cc1)C(=O)O [Bezafibrate, 2-[4-[2-(4-chlorobenzamiso)ethyl]phenoxy]-2-methyl-propionic acid]
Ki ([1]; apparent noncompetitive inhibition constant, read-out: Ki value, unit inferred): 2 µM | IC50 [1, 14]: 3.8 µM

CCOP(=O)(Cc1ccc(C(=O)Nc2ccc(Br)cc2C#N)cc1)OCC [NO-1886]
weight of epididymal fat and whole body lipid ([7]; mice after intraperitoneal inoculation of B16): ameliorated | B16 melanoma-induced cachexia [7]: alleviated

COc1cccc2c1C(=O)c1c(O)c3c(c(O)c1C2=O)C[C@@](O)(C(=O)CO)C[C@@H]3O[C@H]1C[C@H](N)[C@@H](O)[C@H](C)O1 [Epirubicin]
IC50 [1]: 5.5 µM | Ki [1]: 77.6 µM

O=C(O)Cc1nn(Cc2nc3cc(C(F)(F)F)ccc3s2)c(=O)c2ccccc12 [Zopolrestat]
inhibitory effect on AR activity (in words) [1]: inhibitory effects
